Measured values reported in patent US7211566B2 (Universite De Sherbrooke, priority 2003, dated 2007).
Square brackets hold non-standard residues; d marks the D form. Peptide text beside a SMILES is read from it. Oic = O=C(O)[C@@H]1C[C@@H]2CCCC[C@@H]2N1; d2Nal = N[C@H](Cc1ccc2ccccc2c1)C(=O)O; αMeF = C[C@](N)(Cc1ccccc1)C(=O)O; Orn = NCCC[C@H](N)C(=O)O

Tests used:
BKB1 receptor = target: T1, BKB1 receptor (Oryctolagus cuniculus, UniProt P48748); assay: Isolated rabbit aorta (rbA) organ bath, antagonist potency pA2; type: cell-based; details: rabbit aorta without endothelium; mean ± SEM of 4–7 experiments; read-out: Antagonist potencies (pA2) BKB1-R rbA (converted)
T1 construct: The rabbit aorta without endothelium (which contains only the BKB1 receptor); from tissue; host or cells: isolated rabbit aorta (rbA) without endothelium
T1 sequence (P48748 1-352): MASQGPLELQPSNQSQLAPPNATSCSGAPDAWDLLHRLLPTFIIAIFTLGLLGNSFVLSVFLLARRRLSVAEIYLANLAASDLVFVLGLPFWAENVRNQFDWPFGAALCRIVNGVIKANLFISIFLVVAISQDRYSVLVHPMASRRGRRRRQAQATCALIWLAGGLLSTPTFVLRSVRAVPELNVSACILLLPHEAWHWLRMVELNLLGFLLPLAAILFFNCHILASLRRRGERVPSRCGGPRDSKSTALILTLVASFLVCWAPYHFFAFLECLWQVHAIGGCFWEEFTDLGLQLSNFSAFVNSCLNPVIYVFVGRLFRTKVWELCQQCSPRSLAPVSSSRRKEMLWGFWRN
Protocol: (§1) Selected antagonists were tested for activities in three isolated organs: (1) the rabbit aorta (rbA), (2) the human umbilical vein (hUV) and (3) the rabbit jugular vein (rbJV).
(§2) All details regarding the procurements of human umbilical cords and rabbit vessels as well as, the procedures for preparing the isolated organs and the experimental protocols are described in these respective publications: rbA (Rioux et al. 1973, Can J Physiol Pharmacol 51, 114–121); hUV (Gobeil et al. 1996, Br J Pharmacol 118, 289–294), and rbJV (Gaudreau et al. 1981, Can J Physiol Pharmacol 59, 371–379).
The rabbit aorta without endothelium (which contains only the BKB1 receptor) was used to determine the antagonistic activities of each compound.
(§3) The rabbit jugular vein (a pure BKB2 receptor system) was used to exclude any action of the new compounds on the BKB2 receptor and thus establish their selectivity. All tissues were treated with captopril (1 μM) to prevent the degradation of the peptidic agonists.
(§4) Repeated applications of a single and double concentration of BK (on rbJV,) or of desArg^9BK (rbA and hUV) were made in the absence and in presence of the various peptides to evaluate their apparent affinities as antagonists, in terms of pA2 (-log10 of the molar concentration of antagonist that reduces the effect of a double concentration of agonist to that of a single one) (Schild 1947, Br J Pharmacol 2, 189–206).

BKB2 receptor = target: T2, BKB2 receptor (Oryctolagus cuniculus, UniProt Q28642); assay: Isolated rabbit jugular vein (rbJV) organ bath, antagonist potency pA2; type: cell-based; details: BK as agonist, read-out: Antagonist potencies (pA2) BKB2-R rbJV (converted)
T2 construct: The rabbit jugular vein (a pure BKB2 receptor system); from tissue; host or cells: isolated rabbit jugular vein (rbJV)
T2 sequence (Q28642 1-367): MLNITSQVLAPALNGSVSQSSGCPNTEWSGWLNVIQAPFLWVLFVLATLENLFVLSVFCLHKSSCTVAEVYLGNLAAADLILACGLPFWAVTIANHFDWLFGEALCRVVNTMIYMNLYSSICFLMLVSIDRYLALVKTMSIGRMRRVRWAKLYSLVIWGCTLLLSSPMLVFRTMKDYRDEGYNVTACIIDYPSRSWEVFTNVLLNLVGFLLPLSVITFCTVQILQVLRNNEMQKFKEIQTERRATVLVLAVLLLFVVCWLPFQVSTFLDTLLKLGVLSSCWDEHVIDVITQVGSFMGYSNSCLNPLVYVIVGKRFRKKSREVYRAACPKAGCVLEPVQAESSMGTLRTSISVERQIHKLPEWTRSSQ
Protocol: as §1, §2, §3, §4

aminopeptidase M (AmM) = target: T3, aminopeptidase M (AmM) (Homo sapiens, UniProt P15144); assay: In vitro metabolic stability against human plasma AmM; type: in vitro ADME; details: male, human plasma as source of aminopeptidase M, pH 7.5, peptide 200 μM, 60 min incubation, mean ± SEM of 3, read-out: Peptide metabolism (%) Human plasma AmM
T3 construct: incubated for 60 min with 50 μl of human plasma; from tissue; host or cells: human plasma from heparinized blood of healthy male volunteers
T3 sequence (P15144 whole entry): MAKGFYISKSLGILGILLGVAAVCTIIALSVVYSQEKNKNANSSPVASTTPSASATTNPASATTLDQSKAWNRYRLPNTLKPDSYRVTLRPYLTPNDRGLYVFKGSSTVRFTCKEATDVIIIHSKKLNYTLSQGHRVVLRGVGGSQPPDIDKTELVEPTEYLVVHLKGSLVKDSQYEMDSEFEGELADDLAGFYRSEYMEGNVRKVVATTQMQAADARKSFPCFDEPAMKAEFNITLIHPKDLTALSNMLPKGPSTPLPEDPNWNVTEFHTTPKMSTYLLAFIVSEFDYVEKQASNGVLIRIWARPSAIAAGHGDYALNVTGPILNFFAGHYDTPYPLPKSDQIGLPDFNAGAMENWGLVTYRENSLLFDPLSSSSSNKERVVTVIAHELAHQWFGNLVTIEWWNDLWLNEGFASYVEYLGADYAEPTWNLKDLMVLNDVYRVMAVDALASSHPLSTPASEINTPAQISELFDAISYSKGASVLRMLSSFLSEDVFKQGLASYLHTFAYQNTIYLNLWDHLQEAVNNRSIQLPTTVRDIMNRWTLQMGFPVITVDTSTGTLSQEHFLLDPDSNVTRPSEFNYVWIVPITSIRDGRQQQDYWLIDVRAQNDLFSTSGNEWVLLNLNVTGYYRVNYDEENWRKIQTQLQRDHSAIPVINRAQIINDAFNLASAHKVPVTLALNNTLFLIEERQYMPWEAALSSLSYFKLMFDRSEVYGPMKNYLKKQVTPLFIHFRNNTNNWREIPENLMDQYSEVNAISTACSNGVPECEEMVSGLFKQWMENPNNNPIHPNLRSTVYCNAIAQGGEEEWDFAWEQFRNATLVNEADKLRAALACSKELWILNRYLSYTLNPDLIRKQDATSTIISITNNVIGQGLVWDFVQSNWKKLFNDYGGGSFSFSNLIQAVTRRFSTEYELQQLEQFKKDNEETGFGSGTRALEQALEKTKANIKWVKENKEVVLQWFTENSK
Protocol: (§5) These assays were performed using three enzyme preparations: purified angiotensin converting enzyme (ACE; from rabbit lung), human plasma as a, source of aminopeptidase M (AmM) and human platelets as a source of aminopeptidase P (AmP).
Human plasma AmM was prepared as previously described (Gobeil et al., 1999, Hypertension, 33, 823–829). Blood (5 ml) was withdrawn from healthy normotensive male Caucasian volunteers and put into heparinized tube (200 U). Blood samples were centrifuged at 1500 rpm for 15 min in a refrigerated tabletop centrifuge. The peptide antagonists (200 μM) were placed in a PBS buffer (50 mM, pH 7.5, containing 300 mM NaCl) and incubated for 60 min with 50 μl of human plasma (total volume of the medium, 375 μl). Immersing samples into boiling water and then cooling them on ice stopped the hydrolysis reaction. Control experiments have shown that ≈70% of the kininase activity that is present in the human plasma is abolished by amastatin (1 μM) and that the incubation of Lys-[Leu^8]desArg^9BK with this enzymatic preparation led to the production of [Leu^8]desArg^9BK as detected by electrospray mass spectrometry.

aminopeptidase P (AmP) = target: T4, aminopeptidase P (AmP) (Homo sapiens, UniProt Q9NQW7); assay: In vitro metabolic stability against human platelets AmP; type: in vitro ADME; details: mean ± SEM of 3 experiments
T4 construct: from tissue; host or cells: human platelets, freeze-thawed and sonicated, 43 000 x g supernatant
T4 sequence (Q9NQW7 whole entry): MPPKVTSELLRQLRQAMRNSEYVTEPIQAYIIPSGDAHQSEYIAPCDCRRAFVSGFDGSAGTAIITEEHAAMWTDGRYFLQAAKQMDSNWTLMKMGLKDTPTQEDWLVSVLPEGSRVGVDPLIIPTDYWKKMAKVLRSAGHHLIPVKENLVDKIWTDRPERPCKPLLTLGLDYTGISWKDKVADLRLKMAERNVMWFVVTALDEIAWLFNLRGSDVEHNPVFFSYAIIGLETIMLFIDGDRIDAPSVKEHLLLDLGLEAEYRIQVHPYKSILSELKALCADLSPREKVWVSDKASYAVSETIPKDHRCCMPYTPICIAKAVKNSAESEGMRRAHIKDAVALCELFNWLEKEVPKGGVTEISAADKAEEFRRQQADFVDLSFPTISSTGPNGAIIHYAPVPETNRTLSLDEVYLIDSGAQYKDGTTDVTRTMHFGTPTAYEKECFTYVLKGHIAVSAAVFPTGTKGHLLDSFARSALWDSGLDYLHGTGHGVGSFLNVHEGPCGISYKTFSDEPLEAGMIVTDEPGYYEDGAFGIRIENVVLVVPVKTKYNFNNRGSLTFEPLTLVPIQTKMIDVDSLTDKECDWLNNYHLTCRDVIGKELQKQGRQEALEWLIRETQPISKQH
Protocol: as §5
Human platelet AmP was prepared as described by Maggiora et al. (1999, J Med Chem 42, 2394–2402). Human platelets (40 ml) were centrifuged at 250×g for 7 min at room temperature. The resulting supernatant was recentrifuged at 2790×g for 15 min at room temperature. Pellets were collected, resuspended in 40 ml of phosphate-buffered saline (PBS) containing 3.5% of sodium citrate, and then re-centrifuged at 2790×g for 15 min at room temperature. This washing step was repeated. Pellets were resuspended in 4 ml of PBS-sodium citrate, snap-frozen in liquid nitrogen, thawed at 37° C., sonicated briefly, and then centrifuged at 43 000×g for 2 h at 4° C. (Sorvall RC 5B, ss-34 rotor). The resulting supernatant was used for enzyme assays as described in Neugebauer et al. (Neugebauer et al. 2002, supra).

Compound | Kb (BKB1 receptor) [nM] | Kb (BKB2 receptor) [nM] | metabolised at 1 h, 200 µM (aminopeptidase M (AmM)) [%] | Peptide metabolism (%) Human platelets AmP (aminopeptidase P (AmP)) [%]
CC[C@H](C)[C@H](NC(=O)[C@@H](Cc1ccc2ccccc2c1)NC(=O)[C@H](CO)NC(=O)[C@](C)(Cc1ccccc1)NC(=O)CNC(=O)[C@@H]1CCCN1C(=O)[C@@H]1C[C@@H]2CCCC[C@@H]2N1C(=O)[C@H](CCCNC(=N)N)NC(=O)[C@H](CCCN)NC(C)=O)C(=O)O [compound c, Ac-Orn[Oic^2,(α-Me)Phe^5,D-βNal^7,Ile^8]desArg^9BK] (Ac-[Orn]R[Oic]PG[αMeF]S[d2Nal]I-OH) | 2.29 | > 1000 | 0 | 12 ± 2
CC[C@H](C)[C@H](NC(=O)[C@@H](Cc1ccc2ccccc2c1)NC(=O)[C@H](CO)NC(=O)[C@](C)(Cc1ccccc1)NC(=O)CNC(=O)[C@@H]1CCCN1C(=O)[C@@H]1C[C@@H]2CCCC[C@@H]2N1C(=O)[C@H](CCCNC(=N)N)NC(=O)[C@H](CCCCN)NC(C)=O)C(=O)O [Ac-Lys[Oic^2,(α-Me)Phe^5,D-βNal^7,Ile^8]desArg^9BK] (Ac-KR[Oic]PG[αMeF]S[d2Nal]I-OH) | 3.16 | > 1000 | 0 | 12 ± 4
